≈ marks a conversion by molar mass, not a printed value. Read-outs that look alike come from different tables or passages of the source. Where a SMILES comes first, the peptide text is derived from it. Where no end group is shown, it is not given here.
Tests used:
[1] = Hydrophobicity (hydropathy) from reverse-phase HPLC retention scale; type: physicochemical; set-up: key to Average Hydrophobicity of Core Sequence / Mean Core segment Hydrophobicity: arithmetic average of Table 1 hydropathy values of constituent residues; key to Hydropathy: hydropathy scale from HPLC retention times of model peptides (Table 1); details: for Mean residue hydropathy of X-residue peptide / Hydropathy: Table 1; for Hydropathy: of the X-residue, from HPLC retention of KKAAAXAAAAAXAAWAAXAAAKKKK-amide peptides; for Mean Core segment Hydrophobicity: Table 3
Text: The “hydrophobicity value” of an amino acid residue means the hydrophobicity value of that residue as shown in Table 1 or as calculated by the method described herein.
The “hydrophobicity value” of an amino acid sequence or peptide means the arithmetic average of the individual hydrophobicity values of the constituent amino acid residues of the sequence.
Various hydrophobicity scales for proteins and amino acids have been described in the literature but the inventors have established the hydrophobicity scale of Table 1 based on the retention times on HPLC of a series of hydrophobic model peptides, as described in Liu and Deber (1998), Biopolymers (Peptide Science), v. 47, pp. 41-62).
The hydrophobicity value shown for each amino acid in Table 1 as “hydropathy” may be used as the hydrophobicity value for that amino acid in any peptide whose hydrophobicity value has to be calculated. The “average hydrophobicity” of a peptide containing amino acids shown in Table 1 is calculated by determining the arithmetic average of the Table 1 “hydropathy” values for the constituent amino acids of the sequence.
Peptides in accordance with the invention may also include other amino acids. For an amino acid not included in Table 1, the hydrophobicity value may be determined by the same method as described herein for obtaining the values of Table 1. For example, a peptide such as KKAAAXAAAAAXAAXAAXAAAKKKK-amide (Sequence ID No: 1) may be synthesized, where X is the amino acid whose hydrophobicity value is to be determined, and the retention time of the peptide on HPLC is determined, as described in the Examples. Similar peptides where X is Lys or Phe are also prepared and their HPLC retention times determined. The retention time, Rx, is converted to the hydropathy value H for the selected amino acid using the equation
H=(10×ΔtRx-Lys/ΔtRPhe-Lys)−5.00
where ΔtRx-Lys=retention time difference in minutes between Rx and the retention time of the most hydrophilic peptide tested (X=Lys) and where ΔtRPhe-Lys=retention time difference in minutes between the most hydrophobic peptide tested (X=Phe) and the most hydrophilic (X=Lys).
The retention time of each peptide was determined on a C4 reversed-phase column (4.6×250 mm, 300 A pore size, 10 μ particle size). Equal amounts of each peptide were injected into the column and eluted at a flow rate of 1 mL/min, utilizing a linear AB gradient (2% B/min), where buffer A was 0.1% TFA/ddH2O, and buffer B was 0.1% TFA/acetonitrile. The retention time of each peptide reported here was the average of triplicate measurements.

[2] = test system: Corynebacterium xerosis (C875); type: cell-based
Text: (§1) The bacterial strains used were E. coli C498, E. coli C500, Escherichia coli UB1005 and its antibiotic supersusceptible derivative DC2 (22); a clinical isolate of Staphylococcus epidermidis (C621); coryneform bacterial strain Corynebacterium xerosis (C875); and E. coli ATCC 25922, Staphylococcus aureus ATCC 25923, Enterococcus faecalis ATCC 29212, Bacillus subtilis ATCC 6633 and Pseudomonas aeruginosa ATCC 27853, all from American Type Culture Collection.
(§2) Peptide antibacterial activity was assessed by the method of R. Hancock et al. (Wu & Hancock (1999), J. Biol. Chem., v. 274, pp. 29-35). Test strains of bacteria from Mueller Hinton agar (MHA) plates were inoculated into 5 ml Mueller Hinton Broth (MHB) in tubes and grown overnight at 37° C. on a shaker (180 rpm). Serial dilutions of test peptides (at 10 times the required test concentrations) were made in 0.01% acetic acid, 0.2% BSA, in polypropylene or coated glass tubes as follows: the test peptide was (a) dissolved in distilled water at 20 times the required maximum concentration (enough final volume for all tests to be performed on a given day); (b) diluted into an equal volume of 0.02% acetic acid, 0.4% BSA to give 10 times the required maximum concentration; (c) serial doubling dilutions were performed in 0.01% acetic acid, 0.2% BSA to provide serial dilutions of peptides at 10 times the required test concentrations, e.g., 640, 320, 160, . . . 2.5 μg/ml. (No deleterious effects of long-term storage of peptides in these media have been detected). Overnight bacterial cultures were diluted in MHB to give 2−7×10^5 colony forming units/ml. Bacterial suspension (100 μl) was dispensed in each well; controls without bacteria were maintained in parallel. To each well was added 11 μl of 10× test peptide and plates were incubated at 37° C. for 18-24 hours, and checked again at 40-48 hours. Plates were read visually and at 600 nm in a microplate reader (Molecular Devices).
(§3) were synthesized. The antibacterial activity of these peptides was determined against both Gram-positive bacteria ([…], Corynebacterium xerosis) and Gram-negative bacteria (various strains of E. coli). The results are shown in Table 2, along with the average hydrophobicity of each peptide, calculated as described herein.
(§4) A further number of the peptides of the invention were tested for antimicrobial activity against a range of Gram-positive and Gram-negative bacteria by the assay described immediately before Example 1.

[3] = test system: Staphylococcus epidermidis (C621); type: cell-based
Text: as §1, §2, §3, §4

[4] = test system: E. coli DC2; experiment: Assay of antibacterial activity (MIC), E. coli DC2; type: cell-based, Escherichia coli; details: Table 3; Gram-negative
Text: as §1, §2, §4

[5] = test system: E. coli UB1005; type: cell-based, Escherichia coli
Text: as §1, §2, §4

| Compound | Mean residue hydropathy of X-residue peptide [1] | Hydropathy [1] | MIC C. xerosis C875 [2] [µM] | MIC S. epidermidis C621 ([3]; C621) [µM] | MIC E. coli DC2 [4] [µM] | MIC E. coli UB1005 ([5]; UB1005) [µM] | Mean Core segment Hydrophobicity [1] | Antimicrobial activity, spectrum (in words) ([2]; Example 5, active on C. xerosis, not on the other bacteria tested) | MIC C. xerosis C875 ([2]; Table 3, Gram-positive) [µM] | MIC S. epidermidis C621 ([3]; Table 3, Gram-positive) [µM] | MIC E. coli UB1005 ([5]; Table 3, Gram-negative) [µM] |
| --- | --- | --- | --- | --- | --- | --- | --- | --- | --- | --- | --- |
| N=C(N)NCCC[C@H](N)C(=O)O [Arg] | −0.05 | −2.77 |  |  |  |  |  |  |  |  |  |
| C[C@H](NC(=O)CNC(=O)[C@H](C)NC(=O)[C@H](C)NC(=O)[C@H](C)NC(=O)[C@H](CCCCN)NC(=O)[C@@H](N)CCCCN)C(=O)N[C@@H](C)C(=O)N[C@@H](C)C(=O)N[C@@H](C)C(=O)N[C@@H](C)C(=O)NCC(=O)N[C@@H](C)C(=O)N[C@@H](C)C(=O)N[C@@H](Cc1c[nH]c2ccccc12)C(=O)N[C@@H](C)C(=O)N[C@@H](C)C(=O)NCC(=O)N[C@@H](C)C(=O)N[C@@H](C)C(=O)N[C@@H](C)C(=O)N[C@@H](CCCCN)C(=O)N[C@@H](CCCCN)C(=O)N[C@@H](CCCCN)C(=O)N[C@@H](CCCCN)C(N)=O [G] (H-KKAAAGAAAAAGAAWAAGAAAKKKK-NH2; N-terminus assumed) | −0.13 | −3.31 | >64 | >64 | >64 | >64 | −0.13 |  |  |  |  |
| C[C@H](NC(=O)[C@H](C)NC(=O)[C@H](C)NC(=O)[C@H](CC(N)=O)NC(=O)[C@H](C)NC(=O)[C@H](C)NC(=O)[C@H](C)NC(=O)[C@H](CCCCN)NC(=O)[C@@H](N)CCCCN)C(=O)N[C@@H](C)C(=O)N[C@@H](C)C(=O)N[C@@H](CC(N)=O)C(=O)N[C@@H](C)C(=O)N[C@@H](C)C(=O)N[C@@H](Cc1c[nH]c2ccccc12)C(=O)N[C@@H](C)C(=O)N[C@@H](C)C(=O)N[C@@H](CC(N)=O)C(=O)N[C@@H](C)C(=O)N[C@@H](C)C(=O)N[C@@H](C)C(=O)N[C@@H](CCCCN)C(=O)N[C@@H](CCCCN)C(=O)N[C@@H](CCCCN)C(=O)N[C@@H](CCCCN)C(N)=O [N] (H-KKAAANAAAAANAAWAANAAAKKKK-NH2; N-terminus assumed) | −0.16 | −3.79 | >64 | >64 | >64 | >64 | −0.21 |  |  |  |  |
| C[C@H](NC(=O)[C@H](C)NC(=O)[C@H](C)NC(=O)[C@@H](NC(=O)[C@H](C)NC(=O)[C@H](C)NC(=O)[C@H](C)NC(=O)[C@H](CCCCN)NC(=O)[C@@H](N)CCCCN)[C@@H](C)O)C(=O)N[C@@H](C)C(=O)N[C@@H](C)C(=O)N[C@H](C(=O)N[C@@H](C)C(=O)N[C@@H](C)C(=O)N[C@@H](Cc1c[nH]c2ccccc12)C(=O)N[C@@H](C)C(=O)N[C@@H](C)C(=O)N[C@H](C(=O)N[C@@H](C)C(=O)N[C@@H](C)C(=O)N[C@@H](C)C(=O)N[C@@H](CCCCN)C(=O)N[C@@H](CCCCN)C(=O)N[C@@H](CCCCN)C(=O)N[C@@H](CCCCN)C(N)=O)[C@@H](C)O)[C@@H](C)O [T] (H-KKAAATAAAAATAAWAATAAAKKKK-NH2; N-terminus assumed) | 0.22 | −1.08 | >64 | >64 | >64 | >64 | 0.22 |  |  |  |  |
| CC(C)[C@H](NC(=O)[C@H](C)NC(=O)[C@H](C)NC(=O)[C@H](C)NC(=O)[C@H](CCCCN)NC(=O)[C@@H](N)CCCCN)C(=O)N[C@@H](C)C(=O)N[C@@H](C)C(=O)N[C@@H](C)C(=O)N[C@@H](C)C(=O)N[C@@H](C)C(=O)N[C@H](C(=O)N[C@@H](C)C(=O)N[C@@H](C)C(=O)N[C@@H](Cc1c[nH]c2ccccc12)C(=O)N[C@@H](C)C(=O)N[C@@H](C)C(=O)N[C@H](C(=O)N[C@@H](C)C(=O)N[C@@H](C)C(=O)N[C@@H](C)C(=O)N[C@@H](CCCCN)C(=O)N[C@@H](CCCCN)C(=O)N[C@@H](CCCCN)C(=O)N[C@@H](CCCCN)C(N)=O)C(C)C)C(C)C [V] (H-KKAAAVAAAAAVAAWAAVAAAKKKK-NH2; N-terminus assumed) | 0.87 | 3.02 |  |  | >32 |  | 0.87 | activity against gram-positive C. xerosis only | 0.5 (≈ 1.17 µg/mL) | >32 | >32 |
| Asp: KKAAAXAAAAAXAAWAAXAAAKKKK-amide peptide with X-residue Asp (KKAAADAAAAADAAWAADAAAKKKK-NH2) | 0.00 | −2.49 |  |  |  |  |  |  |  |  |  |
| Gln: KKAAAXAAAAAXAAWAAXAAAKKKK-amide peptide with X-residue Gln (KKAAAQAAAAAQAAWAAQAAAKKKK-NH2) | −0.04 | −2.75 |  |  |  |  |  |  |  |  |  |
| Glu: KKAAAXAAAAAXAAWAAXAAAKKKK-amide peptide with X-residue Glu (KKAAAEAAAAAEAAWAAEAAAKKKK-NH2) | 0.16 | −1.49 |  |  |  |  |  |  |  |  |  |
| His: KKAAAXAAAAAXAAWAAXAAAKKKK-amide peptide with X-residue His (X = His; C-terminal amide) | −0.34 | −4.63 |  |  |  |  |  |  |  |  |  |
| K25: KKAAAXAAAAAXAAWAAXAAAKKKK-amide peptide with X = Lys, most hydrophilic peptide tested (KKAAAKAAAAAKAAWAAKAAAKKKK-NH2) [Peptide K25] | −0.40 | −5.00 |  |  |  |  |  |  |  |  |  |
| Pro: KKAAAXAAAAAXAAWAAXAAAKKKK-amide peptide with X-residue Pro (KKAAAPAAAAAPAAWAAPAAAKKKK-NH2) | −0.39 | −4.92 |  |  |  |  |  |  |  |  |  |
